“Also recorded” adds a separate entry of the source.
Tests used:
mPT pore = experiment: Cobalt-quenched calcein assay; type: cell-based; details: HeLa cells; within 5 minutes after treatment
Description: (A) HeLa cells were loaded with 1 μM Calcein-AM and 2 mM cobalt for 15 minutes, and the mitochondria were stained by adding 25 μM MitoTracker for 2 minutes. The representative image of the calcein signals (green) that were overlapped with MitoTracker (Red) was shown.
(B) Time-lapse images of calcein and MitoTracker signals from HeLa cells that were not treated (top panel) or treated (bottom panel) with MTD peptide were obtained at 10-second intervals for 5 minutes. The representative images at the indicated time points were shown.
HeLa cells were loaded with 1 μM Calcein-AM and 2 mM cobalt in serum-free DMEM for 15 minutes, followed by adding 25 μM MitoTracker for 2 minutes to stain the mitochondria. Then, HeLa cells were briefly washed with HBSS (Hank's Buffered Salt Solution) and were treated with MTD peptide in calcium-free media containing 10% FBS (Fetal bovine serum). Time-lapse images were obtained at 10-second intervals for 10 minutes.

HeLa cells [1] = experiment: Caspase activation, western blot of cell lysates; type: cell-based; details: 5 μM peptide
Description: (E) After treatment with the MTD peptide, MTDmt4, or MTDmt5 (5 μM) in HeLa cells, cell lysates were prepared at indicated times. Equal amounts of proteins were subjected to the SDS-PAGE and blotted onto PVDF membrane. After blocked with 5% nonfat milk in TBST (10 mM Tris-HCl, pH 7.5, 100 mM NaCl and 0.1% Tween-20), the membrane was probed with anti-caspase-3 (SantaCruz Biotechnology, Inc., Santa Cruz, Calif., USA), anti-caspase-8 (Cell signaling technology, Beverly, Mass., USA), anti-caspase-9 (SantaCruz Biotechnology, Inc., Santa Cruz, Calif.), anti-XIAP (Upstate Biotechnology, Dundee, United Kingdom), or anti-Bid (home-made) antibodies. Anti-actin antibody (Chemicon International, Inc., Temecula, Calif., USA) was used as equal loading control.

HeLa cells [2] = experiment: Peptide-induced cell death, counting dead and survived cells under the light microscope; type: cell-based; details: peptides 10 μM, 20 μM, 30 μM, 10 minutes after treatment (FIG. 1B, 3A)
Description: (B) HeLa cells were treated with DMSO or the indicated peptides in increasing doses (10 μM, 20 μM, and 30 μM). % of cell death was determined at 10 minutes after treatment by counting the dead cells and survived cells under the light microscope.
(E) HeLa cells were transfected with substitution mutants of MTD peptide.
HeLa cells were treated with DMSO or with the indicated peptides at increasing doses (10 μM, 20 μM, or 30 μM). % cell death was determined 10 minutes after treatment by counting the dead cells and survived cells (300 cells per sample) under the light microscope.
(D) HeLa cells were treated with indicated amounts of MTD peptide for 1 hour, 2 hours, or 5 hours. % cell death was calculated by counting the dead cells and survived cells (200 to 500 cells per sample) under the light microscope. Data represent the means±SD of three independent experiments.

HeLa cells [3] = experiment: HMGB1 release into the media, western blot; type: cell-based; details: 10 μM, 10 to 30 minutes, serum-free medium
Description: (C) HeLa cells were treated with DMSO or MTD peptides (10 μM) for 10 minutes or 30 minutes in the serum-free culture medium. After treatment, culture mediums were collected. Proteins in the conditioned media were precipitated by 2.5 vol. of methanol and 0.1 vol. of 5M NaCl. Precipitates and cell lysates were subjected to SDS-PAGE and western blot analysis with anti-HMGB1 antibody (R&D systems, Minneapolis, Minn.).

HeLa cells [4] = experiment: Live cell images and annexin V / SYTOX Green staining of dying cells; type: cell-based
Description: (§1) (A) HeLa cells were treated with MTD peptides (10 μM), or TRAIL (100 ng/ml). Images were taken at the indicated times (upper panel). Jurkat cells were treated with MTD peptide (10 μM) for 10 minutes, cells were processed for TEM. Images were obtained with 4,000× magnification (lower panel). N: nucleus, M: mitochondrion.
(D) HeLa cells were treated with the MTD (5 μM) peptide with or without the pretreatment of 10 μM BAPTA-AM for 2 hours. Live cell images were serially acquired at 10-second intervals for 10 minutes and shown at the indicated times.
(A) HeLa cells were stained with FITC-conjugated Annexin V antibody at 10 minutes after DMSO or MTD treatment. Images were obtained under the confocal microscope.
(B) HeLa cells were stained with SYTOX Green 10 minutes after DMSO or MTD treatment. Images were obtained using confocal microscope.

[5] = test system: Isolated mouse liver mitochondria; experiment: Isolated mitochondria treated with peptide, transmission electron microscopy; details: 10 μM peptide; 1 hour at 30° C.
Description: (D) Isolated mouse liver mitochondria were treated with buffer (NT), MTD peptide (10 μM), or MTDmt5 peptide (10 μM), and then incubated for 1 hour at 30° C. Mitochondria were harvested by centrifugation (10,000×rpm) and then processed for transmission electron microscopy. Images (upper panel) were obtained with 7,000× magnification, and the relative mitochondrial sizes (lower panel) were calculated by measuring the diameters of about 40 individual mitochondria.
(§2) Jurkat cells or isolated mitochondria treated with MTD peptides were harvested by centrifugation and fixed with 2.5% glutaraldehyde for 2 hours followed by washing with 0.2 M sodium cacodylate buffer (pH 7.2) three times for 10-20 minutes. Fixation step was repeated overnight and washed with 0.2 M sodium cacodylate buffer three times. Samples were dehydrated with following sequential solutions 60% ethanol, 70% ethanol, 80% ethanol, 90% ethanol, 95% ethanol, and 100% ethanol twice for 20 minutes at 4° C., and then infiltrated by propylene oxide three times for 20 minutes. Samples were embedded with the mixture of propylene oxide and epon for 6 hours. Electron microscopic images were obtained using the Hitachi H-7600 electron microscope (80 kV, Hitachi, Tokyo, Japan). Mitochondria were isolated from mouse liver as previously described (1).

NCI-H460 cells = experiment: Peptide-induced cell death in NCI-H460 cells; type: cell-based; details: 5 μM, 2 or 5 hours (FIG. 3C)
Description: (C) NCI-H460 cells were treated with indicated peptides for 2 hours or 5 hours. % cell death was determined as described above.

A549 cells = experiment: Peptide-induced cell death in A549 cells; type: cell-based; details: 5 μM, 1, 2 or 5 hours (FIG. 3D)
Description: (D) A549 cells were treated with indicated peptides for 1, 2, or 5 hours. % cell death was determined as described above.

Jurkat cells = experiment: Transmission electron microscopy of peptide-treated cells; type: cell-based; details: 10 μM for 10 minutes
Description: as §1, §2

HeLa cells [6] = experiment: Cytochrome c release by immunofluorescence; type: cell-based; details: HeLa cells; MTD peptide 5 μM
Description: (B) Plasmids (control vector or Noxa WT fused to GFP) were transfected into HeLa cells. After 2 days in the presence of zVAD-fmk, cytochrome c was stained with anti-cytochrome c antibody. Arrows indicate the diffused cytochrome c staining (upper panel). The release of cytochrome c was analyzed by immunofluorescence in HeLa cells after treatment with MTD peptides (5 μM) (lower panel).

HeLa cells [7] = experiment: Measurement of intracellular calcium with Fluo-4-AM; type: cell-based; details: 3 μM peptide
Description: (A-C) HeLa cells were loaded with 3 μM Fluo-4-AM for 30 minutes and then treated with 3 μM of indicated peptides (A: MTD, B: MTDmt3, C: MTDmt5). Fluorescence images and bright-field images were obtained with the laser scanning confocal microscope at 5-second intervals for 5 minutes. Relative fluorescence intensities (F/F0) at two region-of-interests (ROI 1 and 2) were measured at 5-second intervals for 5 minutes.
(E-G) HeLa cells were pretreated in calcium free KRB media alone (E), in KRB media with 10 μM 2-APB and 20 μM Ryanodine (F), or in KRB media with freshly made 30 μM CsA (G) for 2 hours. HeLa cells were then loaded with 3 μM Fluo-4-AM for 30 minutes and treated with 3 μM of MTD peptide. Images were obtained with the laser scanning confocal microscope at 5-second intervals for 5 minutes. Relative fluorescence intensities (F/F0) at two region-of-interests (ROI 1 and 2) were measured at 5-second intervals for 5 minutes.
For Ca^2+ measurements in the cytosol, HeLa cells were cultured in an Lab-Tek™ Chamber glass slide and loaded with Fluo-4-AM (Fluo-4-acetoxymethyl ester) at a final concentration of 3 μM for 30 minutes, followed by washing with PBS (Phosphate buffered saline) at pH 7.4 and the addition of fresh Ca^2+-free Krebs-ringer modified buffer (KRB: 125 mM NaCl, 5 mM KCl, 1 mM Na3PO4, 1 mM MgSO4, 5.5 mM glucose, and 20 mM HEPES, pH 7.4, at 37° C.) containing the indicated peptides. Time-lapse images were obtained at 488 nm excitation with the Argon laser scanning confocal microscope (Leica TCS SP5 Microsystems, Mannheim, Germany) at 10-second intervals for 5 minutes to visualize Fluo-4-AM.

Sequence: RRRRRRRRGRQKLLNLISKLF [MTD]
- mitochondrial calcein signals (mPT pore opening) (mPT pore): significantly decreased
- caspase activation (HeLa cells [1]): not activated
- cell death-inducing activity (% of cell death) (HeLa cells [2]): comparable cell death-inducing activity to NoxaBH3MTD peptide
- HMGB1 release to the media (HeLa cells [3]): significantly released to the media
- annexin V and SYTOX Green staining (HeLa cells [4]; 10 minutes after treatment): stained with annexin V and SYTOX Green
- morphology of dying cells (HeLa cells [4]; MTD peptide 10 μM or TRAIL 100 ng/ml (FIG. 2A, 7A, 7B)): bubble-like structures of dying cells; also recorded: swollen cytoplasmic membrane
- morphological changes or mitochondrial size changes of isolated mitochondria [5]: did not show any morphological changes or mitochondrial size changes; also recorded: no morphological changes
- susceptibility of cells to peptide (NCI-H460 cells): very susceptible
- susceptibility of cells to peptide (A549 cells): very resistant
- ultrastructural changes by transmission electron microscopy (Jurkat cells): swollen mitochondria, the enlarged nucleus and cell membrane swelling; also recorded: swelled mitochondria
- cytochrome c release from the mitochondria to the cytosol (HeLa cells [6]): not released; also recorded: neither cytochrome c release
- cytosolic calcium level change (HeLa cells [7]): substantially increased
- time to cytosolic calcium increase after treatment (HeLa cells [7]): 1 to 3 min

Source: patent US8877889B2, “Tumor cell-killing peptides” (Industry-Academic Cooperation Foundation, Chosun University, priority 2009, dated 2014)
